For the test, the target named is T1, recombinant guanylate cyclase reporter cell line (Rattus norvegicus, UniProt P19686+P20595).
T1 construct: expressed in transfected cells
T1 sequence (P20595 1-619): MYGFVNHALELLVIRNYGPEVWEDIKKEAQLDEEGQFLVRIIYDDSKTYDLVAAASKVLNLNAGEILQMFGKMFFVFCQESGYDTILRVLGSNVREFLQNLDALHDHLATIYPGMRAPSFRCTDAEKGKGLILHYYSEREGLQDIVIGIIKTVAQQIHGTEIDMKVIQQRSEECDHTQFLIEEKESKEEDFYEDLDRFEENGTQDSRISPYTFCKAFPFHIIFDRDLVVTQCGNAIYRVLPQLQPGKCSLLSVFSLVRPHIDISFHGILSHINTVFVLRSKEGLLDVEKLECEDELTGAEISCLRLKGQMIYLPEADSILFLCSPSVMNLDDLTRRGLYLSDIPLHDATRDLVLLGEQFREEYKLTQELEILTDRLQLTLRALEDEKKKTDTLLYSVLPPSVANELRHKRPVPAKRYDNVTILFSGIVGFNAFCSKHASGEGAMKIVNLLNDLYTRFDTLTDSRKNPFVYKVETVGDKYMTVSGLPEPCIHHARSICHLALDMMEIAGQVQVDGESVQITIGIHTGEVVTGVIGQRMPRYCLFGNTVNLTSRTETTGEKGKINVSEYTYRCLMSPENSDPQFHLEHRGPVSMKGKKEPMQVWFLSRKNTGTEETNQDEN
T1 sequence (P19686 1-690): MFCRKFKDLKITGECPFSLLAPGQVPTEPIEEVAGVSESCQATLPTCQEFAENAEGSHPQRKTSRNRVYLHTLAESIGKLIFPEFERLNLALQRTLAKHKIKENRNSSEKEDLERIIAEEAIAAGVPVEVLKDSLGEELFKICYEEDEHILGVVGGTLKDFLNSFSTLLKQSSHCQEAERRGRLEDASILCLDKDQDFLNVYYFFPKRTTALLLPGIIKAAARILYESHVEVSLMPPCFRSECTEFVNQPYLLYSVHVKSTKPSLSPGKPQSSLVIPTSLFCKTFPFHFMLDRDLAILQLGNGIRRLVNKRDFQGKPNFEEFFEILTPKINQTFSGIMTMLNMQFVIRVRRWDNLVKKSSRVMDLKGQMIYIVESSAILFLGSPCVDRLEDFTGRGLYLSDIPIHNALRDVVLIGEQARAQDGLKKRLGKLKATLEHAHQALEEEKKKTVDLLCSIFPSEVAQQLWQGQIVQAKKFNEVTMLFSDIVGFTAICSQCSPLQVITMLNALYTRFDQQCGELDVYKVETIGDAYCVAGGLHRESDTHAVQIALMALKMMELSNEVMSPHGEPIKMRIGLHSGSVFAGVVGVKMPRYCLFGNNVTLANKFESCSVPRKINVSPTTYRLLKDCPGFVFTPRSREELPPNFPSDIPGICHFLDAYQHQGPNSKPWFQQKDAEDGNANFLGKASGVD
The test can be described thus: B-2. Action on recombinant guanylate cyclase reporter cell line. In kind it is cell-based. The conditions noted are these: MEC = minimal effective concentration; in some cases mean values from individual determinations. The method, boiled down: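 Read-out: MEC (minimal effective concentration) in cells. Reporter line carries recombinant sGC. Some values are averages of single runs.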

As for `Cc1nc2c(OCc3c(F)cccc3F)cccn2c1C(=O)NCCN1CCOCC1` [Example 89, 8-[(2,6-difluorobenzyl)oxy]-2-methyl-N-[2-(morpholin-4-yl)ethyl]imidazo[1,2-a]pyridine-3-carboxamide], the MEC amounted to 0.65 µM.
Consider `Cc1nc2c(OCc3c(F)cccc3F)cccn2c1C(=O)NC1CC2CCCC(C1)N2C` (centres unmarked) [Example 90, 8-[(2,6-difluorobenzyl)oxy]-2-methyl-N-(9-methyl-9-azabicyclo[3.3.1]non-3-yl)imidazo[1,2-a]pyridine-3-carboxamide], for which the MEC was determined as 0.10 µM.
The value for `Cc1nc2c(OCc3c(F)cccc3F)cccn2c1C(=O)NC1CC2CCC(C1)N2C` (centres unmarked) [Example 91, 8-[(2,6-difluorobenzyl)oxy]-2-methyl-N-(8-methyl-8-azabicyclo[3.2.1]oct-3-yl)imidazo[1,2-a]pyridine-3-carboxamide] was 1.00 µM.
Take `Cc1nc2c(OCc3c(F)cccc3F)cccn2c1C(=O)NC1CN2CCC1CC2` (centres unmarked) [Example 92, N-(1-azabicyclo[2.2.2]oct-3-yl)-8-[(2,6-difluorobenzyl)oxy]-2-methylimidazo[1,2-a]-pyridine-3-carboxamide]: the MEC was 0.30 µM.
In the case of `Cc1cc(OCc2c(F)cccc2F)c2nc(C)c(C(=O)NCC(C)(C)NCC(F)(F)F)n2c1` [Example 94, 8-[(2,6-Difluorobenzyl)oxy]-2,6-dimethyl-N-{2-methyl-2-[(2,2,2-trifluoroethyl)amino]propyl}-imidazo[1,2-a]pyridine-3-carboxamide], the MEC is 0.30 µM.
In the case of `[2H]C([2H])(Oc1cccn2c(C(=O)NC(CN)c3ccc(F)c(F)c3)c(C)nc12)c1c(F)cccc1F` (stereo not drawn) [Example 97, ent-N-[2-Amino-1-(3,4-difluorophenyl)ethyl]-8-{[(2,6-difluorophenyl) (^2H2)methyl]oxy}-2-methylimidazo[1,2-a]pyridine-3-carboxamide], the MEC was found to be 0.10 µM.
Under `Cc1nc2c(OCc3ccccc3F)cccn2c1C(=O)NC(CN)c1ccc(F)c(F)c1` (stereo not drawn) [Example 98, ent-N-[2-Amino-1-(3,4-difluorophenyl)ethyl]-8-[(2-fluorobenzyl)oxy]-2-methylimidazo[1,2-a]-pyridine-3-carboxamide] stands 1.00 µM.
Under `Cc1nc2c(OCc3cccc(F)c3F)cccn2c1C(=O)NC(CN)c1ccc(F)c(F)c1` (stereo not drawn) [Example 99, ent-N-[2-amino-1-(3,4-difluorophenyl)ethyl]-8-[(2,3-difluorobenzyl)oxy]-2-methylimidazo[1,2-a]pyridine-3-carboxamide] stands 1.00 µM; under `Cc1nc2c(OCc3c(F)ccc(F)c3F)cccn2c1C(=O)NC(CN)c1ccc(F)c(F)c1` (stereo not drawn) [Example 100, ent-N-[2-amino-1-(3,4-difluorophenyl)ethyl]-2-methyl-8-[(2,3,6-trifluorobenzyl)oxy] imidazo[1,2-a]pyridine-3-carboxamide], 0.30 µM; under `Cc1nc2c(OCc3c(F)cc(F)cc3F)cccn2c1C(=O)NC(CN)c1ccc(F)c(F)c1` (stereo not drawn) [Example 101, ent-N-[2-amino-1-(3,4-difluorophenyl)ethyl]-2-methyl-8-[(2,4,6-trifluorobenzyl)oxy] imidazo[1,2-a]pyridine-3-carboxamide], 1.00 µM.
The value for `Cc1nc2c(OCc3c(F)cccc3Cl)cccn2c1C(=O)NC(CN)c1ccc(F)c(F)c1` (stereo not drawn) [Example 102, ent-N-[2-amino-1-(3,4-difluorophenyl)ethyl]-8-[(2-chloro-6-fluorobenzyl)oxy]-2-methylimidazo[1,2-a]pyridine-3-carboxamide] was 1.00 µM; that for `Cc1nc2c(OCc3c(F)cccc3F)cccn2c1C(=O)NCC(C)(C)CN` [Example 103, N-(3-amino-2,2-dimethylpropyl)-8-[(2,6-difluorobenzyl)oxy]-2-methylimidazo[1,2-a]-pyridine-3-carboxamide] was 3.00 µM.
Regarding `Cc1nc2c(OCc3c(F)cccc3F)cc(Cl)cn2c1C(=O)NCCC(C)(C)N` [Example 104, N-(3-Amino-3-methylbutyl)-6-chloro-8-[(2,6-difluorobenzyl)oxy]-2-methylimidazo[1,2-a]-pyridine-3-carboxamide], the MEC was 0.30 µM.
The value for `Cc1cc(OCc2c(F)cccc2F)c2nc(C)c(C(=O)NCCC(C)(C)N)n2c1` [Example 114, N-(3-amino-3-methylbutyl)-8-[(2,6-difluorobenzyl)oxy]-2,6-dimethylimidazo[1,2-a]-pyridine-3-carboxamide] was 0.30 µM; that for `Cc1cc(OCc2c(F)cccc2F)c2nc(C)c(C(=O)NC[C@@H]3CCCN3)n2c1` [Example 115, 8-[(2,6-difluorobenzyl)oxy]-2,6-dimethyl-N-[(2S)-pyrrolidin-2-ylmethyl]imidazo[1,2-a]-pyridine-3-carboxamide] was 1.00 µM; that for `Cc1cc(OCc2c(F)cccc2F)c2nc(C)c(C(=O)NC[C@H]3CCCN3)n2c1` [Example 116, 8-[(2,6-difluorobenzyl)oxy]-2,6-dimethyl-N-[(2R)-pyrrolidin-2-ylmethyl]imidazo[1,2-a]-pyridine-3-carboxamide] was 3.00 µM.
Regarding `Cc1nc2c(OCc3c(F)cccc3F)cccn2c1C(=O)NCCC(C)(C)N` [Example 117, N-(3-amino-3-methylbutyl)-8-[(2,6-difluorobenzyl)oxy]-2-methylimidazo[1,2-a]-pyridine-3-carboxamide], the MEC was 1.00 µM.
For `Cc1nc2c(OCc3c(F)cccc3F)cccn2c1C(=O)NC(C)[C@H](C)N` (stereo partly drawn) [Example 120, N-[(3S)-3-Aminobutan-2-yl]-8-[(2,6-difluorobenzyl)oxy]-2-methylimidazo[1,2-a]pyridine-3-carboxamide], the MEC amounted to 0.30 µM.
`Cc1nc2c(OCc3c(F)cccc3F)cccn2c1C(=O)NC(C)[C@@H](C)N` (stereo partly drawn) [Example 121, N-[(3R)-3-Aminobutan-2-yl]-8-[(2,6-difluorobenzyl)oxy]-2-methylimidazo[1,2-a]pyridine-3-carboxamide]: the MEC turned out to be 0.30 µM.
On to `Cc1nc2c(OCc3c(F)cccc3F)cccn2c1C(=O)NC(CN)COc1ccc(F)c(F)c1` (stereo not drawn) [Example 124, ent-N-[1-Amino-3-(3,4-difluorophenoxy)propan-2-yl]-8-[(2,6-difluorobenzyl)oxy]-2-methylimidazo[1,2-a]pyridine-3-carboxamide Ditrifluoroacetate], for which the MEC was found to be 1.00 µM.
Turning to `Cc1nc2c(OCc3c(F)cccc3F)cccn2c1C(=O)NCCNC(C)C` [Example 130, 8-[(2,6-difluorobenzyl)oxy]-N-[2-(isopropylamino)ethyl]-2-methylimidazo[1,2-a]-pyridine-3-carboxamide], the MEC stood at 1.00 µM.
On to `Cc1nc2c(OCc3c(F)cccc3F)cccn2c1C(=O)NCCN1CCS(=O)(=O)CC1` [Example 131, 8-[(2,6-difluorobenzyl)oxy]-N-[2-(1,1-dioxidothiomorpholin-4-yl)ethyl]-2-methylimidazo[1,2-a]pyridine-3-carboxamide], for which the MEC turned out to be 3.00 µM.
As to `Cc1nc2c(OCc3c(F)cccc3F)cccn2c1C(=O)NCCN1CCN(C)CC1` [Example 133, 8-[(2,6-difluorobenzyl)oxy]-2-methyl-N-[2-(4-methylpiperazin-1-yl)ethyl]imidazo[1,2-a]-pyridine-3-carboxamide], the MEC worked out at 3.00 µM.
The value for `Cc1cc(OCc2c(F)cccc2F)c2nc(C)c(C(=O)NCCN3CCOCC3)n2c1` [Example 136, 8-[(2,6-difluorobenzyl)oxy]-2,6-dimethyl-N-[2-(morpholin-4-yl)ethyl]imidazo[1,2-a]pyridine-3-carboxamide] was 0.10 µM; that for `Cc1cc(OCc2c(F)cccc2F)c2nc(C)c(C(=O)NCCN3CCN(C)CC3)n2c1` [Example 137, 8-[(2,6-difluorobenzyl)oxy]-2,6-dimethyl-N-[2-(4-methylpiperazin-1-yl)ethyl]imidazo[1,2-a]-pyridine-3-carboxamide] was 1.00 µM.
On to `Cc1cc(OCc2c(F)cccc2F)c2nc(C)c(C(=O)NCCN3CCN(C(C)C)CC3)n2c1` [Example 139, 8-[(2,6-difIuorobenzyl)oxy]-N-[2-(4-isopropylpiperazin-1-yl)ethyl]-2,6-dimethylimidazo[1,2-a]pyridine-3-carboxamide], for which the MEC was 1.00 µM.

For the origin of these results see patent US9624214B2, “Amino-substituted imidazo[1,2-a]pyridinecarboxamides and their use” (BAYER PHARMA AKTIENGESELLSCHAFT, priority 2012, dated 2017).
